Positions of bridges follow the written chain, without caps; N, C: chain ends. Non-standard residues stand in square brackets, D forms with d. Residues, ends and D or L forms follow the SMILES beside them. *: point of attachment. Ileψ(thiazoline)Cys = CC[C@H](C)[C@H](N)C1=N[C@H](C(=O)*)CS1; dOrn = NCCC[C@@H](N)C(=O)O
Assays:
resident flora = settings: infants, after treatment with the antibiotic (Brook, 2000); cited from earlier work
[1] = system: Staphylococcus aureus (DSM346); assay: in-vitro-hole plate assay, growth inhibition of S. aureus in comparison to bacitracin and erythromycin; type: cell-based; settings: pre-cutted holes, BHI plates; antibiotics at different concentrations, defined numbers of Lactobacillus cells
Method: The term “microorganisms of the pathogenic transient micro flora” has been described herein above. Preferably, the term relates to Staphylococcus aureus. […] This effect has been compared to commercial antibiotic cream preparations of bacitracin and erythromycin. […] The diameter of the inhibition zones has been measured and the area of inhibition has been calculated thereof. […] Lactic acid bacteria were cultivated (OB-LB-Sa3; DSM 18006) from a −80° C. freezing culture in 1 ml MRS broth in eppendorf tubes. Tubes were closed and cultivated for 2 days at 37° C. 10 μl of this pre culture was transferred to the main culture consisting of 7 ml MRS broth in falcon tubes. The culture was incubated for 2 days. After cultivation cells were harvested by centrifugation (15 min, 4000×g). The cell pellet was washed two times with K/Na-buffer (each 1 ml). Cells were resuspended in 200 μl K/Na buffer. The indicator strain was Staphylococcus aureus (DSM346). 20 ml BHI broth in a shaking glass flask were inoculated with 15 μl of a 24 h pre culture. The indicator strain was cultivated for 24 h at 37° C. An aliquot was diluted to an optical density OD595 nm of 0.025-0.05 in BHI-broth and 800 μl spread on indicator plates (BHI). The agar was stamped using a cork borer. The holes were filled with 5 μl or 10 μl of the pre cultured lactic acid bacteria or corresponding volumes of commercial antibiotic preparations.

Compound	repression of the resident flora (resident flora)	growth inhibition of S. aureus (inhibition zone, area of inhibition) [1]
CC1(C)S[C@@H]2[C@H](NC(=O)[C@H](N)c3ccc(O)cc3)C(=O)N2[C@H]1C(=O)O [amoxicillin]	about 50%	–
CC[C@H](C)[C@H](N)C1=N[C@H](C(=O)N[C@@H](CC(C)C)C(=O)N[C@H](CCC(=O)O)C(=O)N[C@H](C(=O)N[C@H]2CCCCNC(=O)[C@H](CC(N)=O)NC(=O)[C@@H](CC(=O)O)NC(=O)[C@H](Cc3cnc[nH]3)NC(=O)[C@@H](Cc3ccccc3)NC(=O)[C@H]([C@@H](C)CC)NC(=O)[C@@H](CCCN)NC2=O)[C@@H](C)CC)CS1 [bacitracin] ({Ileψ(thiazoline)Cys}-L[dE]IK[dOrn]I[dF]H[dD]N; lactam 4-C)	–	growth inhibition
CC[C@H]1OC(=O)[C@H](C)[C@@H](O[C@H]2C[C@@](C)(OC)[C@@H](O)[C@H](C)O2)[C@H](C)[C@@H](O[C@@H]2O[C@H](C)C[C@H](N(C)C)[C@H]2O)[C@](C)(O)C[C@@H](C)C(=O)[C@H](C)[C@@H](O)[C@]1(C)O [erythromycin]	–	growth inhibition
Lactobacillus delbrückii ssp. delbrückii OB-LB-Sa3	–	growth inhibition
